Assay: Gas chromatographic headspace measurement of fragrance compounds with and without zinc ricinoleate
Assay type: physicochemical
Conditions: 100 ng of each fragrance chemical on a film of 0.5 g zinc ricinoleate; FIG. 4
Description: The effect of zinc ricinoleate [Zn(Ri)2] on the partitioning of compounds into the headspace. Headspace analysis is a sampling technique in which a nonvolatile matrix (liquid or solid) is heated and volatiles are collected as they partition (migrate) into the unfilled volume of the vial (headspace). These compounds are concentrated on an adsorbent tube then injected into the chromatograph where individual compounds are separated.
A sample of volatile compounds are placed into a vial, sealed, and heated for a period of time. The volatile compounds will migrate into the gas headspace. The more volatile the compound, the more concentrated it will be in the headspace. Conversely, the less volatile components will partition into the headspace to a lesser extent thus separating components of interest from the nonvolatile sample matrix (diaper).
For each test compound, 1 microliter of a 100 nanogram/microliter (ng/μl) solution (100 ng of each fragrance chemical) is put into a vial, warmed, purged, and volatiles concentrated in an adsorbent cartridge. The cartridge is desorbed into the GC where individual compounds are separated. A second set of each of the fragrance chemicals is prepared and added to a vial where 0.5 g zinc ricinoleate has been added. […]

zinc ricinoleate
effect on headspace volatility of fragrance chemicals: reduction of volatility
